Measured values taken from ChEMBL document CHEMBL1125817, “Synthesis and evaluation of a series of 3,5-disubstituted benzisoxazole-4,7-diones. Potent radiosensitizers in vitro” (1991).

Assays:
Cricetulus griseus [1] = organism: Cricetulus griseus; assay: Sensitizer enhancement ratio was determined from the ratio of the doses required to reduce cell survival to 25% of the control value obtained from hypoxic survival curves in the presence and absence of test compound; c = Compound was too insoluble to test; type: functional
Cricetulus griseus [2] = organism: Cricetulus griseus; assay: Concentration of the highest non-toxic dose tested; c = Compound was too insoluble to test; type: functional
[3] = Sensitizer enhancement ratio was determined from the ratio of the doses required to reduce cell survival to 25% of the control value obtained from hypoxic survival curves in the presence and absence of test compound; type: functional, Cricetulus griseus
Cricetulus griseus [4] = organism: Cricetulus griseus; assay: Concentration of the highest non-toxic dose tested; type: functional

Which Ratio (Cricetulus griseus [1]) does the source give for `CCNc1onc2c1C(=O)/C(=N\c1ccccc1)C=C2O` here?
Its Ratio is “Too insoluble”.

What about the Concentration (Cricetulus griseus [2]) of the same molecule?
Its Concentration is “Too insoluble”.

For `CCOc1onc2c1C(=O)/C(=N\c1ccc(C(F)(F)F)cc1)C=C2O`, which Ratio (Cricetulus griseus [1]) is on record?
The Ratio was “Too insoluble”.

What about the Concentration (Cricetulus griseus [2]) of the same molecule?
The Concentration was “Too insoluble”.

What does the source list for `O=C1/C(=N\c2ccccc2)C=C(O)c2noc(N(CCO)CCO)c21`?
Ratio [3]: 2.1; Concentration (Cricetulus griseus [4]): 1.5 mM

With `O=C1C=C(Nc2ccccc2)C(=O)c2c1noc2NCCN1CCCCC1` as the molecule, how does the Ratio [3] read?
The Ratio was 2.4.

What about the Concentration (Cricetulus griseus [4]) of the same molecule?
The Concentration was 0.38 mM.

Which Ratio [3] does the source give for `O=C1C=C(Nc2ccc(F)cc2)C(=O)c2c1noc2NCCN1CCCCC1` here?
Its Ratio is 1.6.

What about the Concentration (Cricetulus griseus [4]) of the same molecule?
Its Concentration is 0.29 mM.

With `CN(C)CCNc1onc2c1C(=O)/C(=N\c1ccccc1)C=C2O` as the molecule, how does the Ratio [3] read?
Its Ratio is 1.5.

What about the Concentration (Cricetulus griseus [4]) of the same molecule?
Its Concentration is 0.19 mM.

With `CN(C)CCCNc1onc2c1C(=O)/C(=N\c1ccc(C(F)(F)F)cc1)C=C2O` as the molecule, how does the Ratio [3] read?
Its Ratio is 1.3.

And the Concentration (Cricetulus griseus [4])?
The Concentration was 0.09 mM.

With `O=C1C=C(Nc2ccc(C(F)(F)F)cc2)C(=O)c2c1noc2NCCN1CCCCC1` as the molecule, how does the Ratio [3] read?
The Ratio was 1.6.

What about the Concentration (Cricetulus griseus [4]) of the same molecule?
The Concentration was 0.13 mM.

Which Ratio [3] does the source give for `CCOc1onc2c1C(=O)/C(=N\c1ccccc1)C=C2O` here?
The Ratio was 1.3.

What about the Concentration (Cricetulus griseus [4]) of the same molecule?
The Concentration was 0.03 mM.

What does the source list for `CCOc1onc2c1C(=O)/C(=N\c1ccc(Cl)cc1)C=C2O`?
Ratio (Cricetulus griseus [1]): Too insoluble; Concentration (Cricetulus griseus [2]): Too insoluble

For `O=C1C=C(Nc2ccc(Cl)cc2)C(=O)c2c1noc2NCCN1CCCCC1`, which Ratio [3] is on record?
Its Ratio is 1.9.

What about the Concentration (Cricetulus griseus [4]) of the same molecule?
Its Concentration is 0.19 mM.

For `O=C1C=C(Nc2ccccc2)C(=O)c2c1noc2-c1ccccc1`, which Ratio (Cricetulus griseus [1]) is on record?
Its Ratio is “Too insoluble”.

What about the Concentration (Cricetulus griseus [2]) of the same molecule?
Its Concentration is “Too insoluble”.

For `CCOc1onc2c1C(=O)/C(=N\c1ccc(F)cc1)C=C2O`, which Ratio (Cricetulus griseus [1]) is on record?
Its Ratio is “Too insoluble”.

And the Concentration (Cricetulus griseus [2])?
Its Concentration is “Too insoluble”.

For `CN(C)CCCN(C)c1onc2c1C(=O)/C(=N\c1ccccc1)C=C2O`, which Ratio [3] is on record?
The Ratio was 1.5.

And the Concentration (Cricetulus griseus [4])?
The Concentration was 0.38 mM.

What does the source list for `CN(C)CCCNc1onc2c1C(=O)/C(=N\c1ccc(F)cc1)C=C2O`?
Ratio [3]: 1.4; Concentration (Cricetulus griseus [4]): 0.38 mM

Which Ratio (Cricetulus griseus [1]) does the source give for `Cc1onc2c1C(=O)/C(=N\c1ccccc1)C=C2O` here?
The Ratio was “Too insoluble”.

What about the Concentration (Cricetulus griseus [2]) of the same molecule?
Its Concentration is “Too insoluble”.

Which results are given for `CN(C)CCCNc1onc2c1C(=O)/C(=N\c1ccc(Cl)cc1)C=C2O`?
Ratio [3]: 1.7; Concentration (Cricetulus griseus [4]): 0.13 mM

With `Cc1ccc(/N=C2/C=C(O)c3noc(NCCN(C)C)c3C2=O)cc1` as the molecule, how does the Ratio [3] read?
The Ratio was 1.2.

What about the Concentration (Cricetulus griseus [4]) of the same molecule?
Its Concentration is 0.05 mM.

For `CCOc1onc2c1C(=O)/C(=N\c1ccc(C)cc1)C=C2O`, which Ratio (Cricetulus griseus [1]) is on record?
The Ratio was “Too insoluble”.

And the Concentration (Cricetulus griseus [2])?
The Concentration was “Too insoluble”.

For `CCN(CC)c1onc2c1C(=O)/C(=N\c1ccccc1)C=C2O`, which Ratio (Cricetulus griseus [1]) is on record?
The Ratio was “Too insoluble”.

And the Concentration (Cricetulus griseus [2])?
The Concentration was “Too insoluble”.

For `CN(C)CCN(C)c1onc2c1C(=O)/C(=N\c1ccccc1)C=C2O`, which Ratio [3] is on record?
The Ratio was 2.

And the Concentration (Cricetulus griseus [4])?
Its Concentration is 0.38 mM.

Which Ratio [3] does the source give for `CN(C)CCCNc1onc2c1C(=O)/C(=N\c1ccccc1)C=C2O` here?
The Ratio was 1.7.

What about the Concentration (Cricetulus griseus [4]) of the same molecule?
Its Concentration is 0.19 mM.
